From publication PMC6825221, “In silico re-engineering of a neurotransmitter to activate KCNQ potassium channels in an isoform-specific manner” (Communications Biology, 2019)
“And” between values parts separate entries of the source, which are not always exact repeats. Equal values may be shown once.

Experiments:
KCNQ2/3 = KCNQ2/3 (Homo sapiens, UniProt O43525+O43526); assay: TEVC of KCNQ2/3 channels expressed in Xenopus oocytes; type: cell-based
From the text: (§1) We generated cRNA transcripts encoding human KCNQ1, KCNQ2, KCNQ3, KCNQ4, KCNQ5 or GLRA1 (NM_001146040) (GenScript, Piscataway, NJ, USA) by in vitro transcription using the T7 polymerase mMessage mMachine kit (Thermo Fisher Scientific), after vector linearization, from cDNA sub-cloned into plasmids incorporating Xenopus laevis β-globin 5′ and 3′ UTRs flanking the coding region to enhance translation and cRNA stability. We quantified cRNA by spectrophotometry. […] We injected defolliculated stage V and VI Xenopus laevis oocytes (Ecocyte Bioscience, Austin, TX and Xenoocyte, Dexter, MI) with KCNQ channel α subunit (5-20 ng) or GLRA1 (20 ng) cRNAs. We incubated the oocytes at 16 °C in Barth’s saline solution (Ecocyte Bioscience) containing penicillin and streptomycin, with daily washing, for 2–5 days prior to two-electrode voltage-clamp (TEVC) recording.
(§2) For recording, oocytes were placed in a small-volume oocyte bath (Warner) and viewed them with a dissection microscope. Chemicals were sourced from Sigma, Matrix Scientific and Santa Cruz. […] All stock solutions were diluted in bath solution on the day of experiments. KCNQ2/3 channel activation was screened for using either 30 µM or 100 µM concentrations of each of the six compounds, then dose responses were conducted as appropriate. Bath solution was (in mM): 96 NaCl, 4 KCl, 1 MgCl2, 1 CaCl2, 10 HEPES (pH 7.6). Compounds were introduced into the oocyte recording bath by gravity perfusion at a constant flow of 1 ml per minute for 3 min prior to recording. Pipettes were of 1–2 MΩ resistance when filled with 3 M KCl. Currents were recorded in response to voltage pulses between −120 or −80 mV and + 40 mV at 20 mV intervals from a holding potential of −80 mV, to yield current-voltage relationships, current magnitude, and for quantifying activation rate. We analyzed data using Clampfit (Molecular Devices) and Graphpad Prism software (GraphPad, San Diego, CA, USA); values are stated as mean ± SEM. We plotted raw or normalized tail currents versus prepulse voltage and fitted with a single Boltzmann function:1 g=(A1−A2)/1+exp(V12−V)∕VS+A2, where g is the normalized tail conductance, A1 is the initial value at −∞, A2 is the final value at +∞, V1/2 is the half-maximal voltage of activation and Vs the slope factor. Activation, deactivation, wash-in and washout kinetics were fitted with single exponential functions to yield a τ value.

KCNQ2 = KCNQ2 (Homo sapiens, UniProt O43526); assay: TEVC of homomeric KCNQ2 expressed in Xenopus oocytes; type: cell-based
From the text: as §1, §2

KCNQ2-R213A/KCNQ3-R242A = KCNQ2-R213A/KCNQ3-R242A (Homo sapiens, UniProt O43525+O43526, R213A/R242A); assay: TEVC of RA/RA mutant KCNQ2/3; type: cell-based; settings: GABA up to 1 mM
From the text: as §1
For recording, oocytes were placed in a small-volume oocyte bath (Warner) and viewed them with a dissection microscope. […] Currents were recorded in response to voltage pulses between −120 or −80 mV and + 40 mV at 20 mV intervals from a holding potential of −80 mV, to yield current-voltage relationships, current magnitude, and for quantifying activation rate. We analyzed data using Clampfit (Molecular Devices) and Graphpad Prism software (GraphPad, San Diego, CA, USA); values are stated as mean ± SEM. […]

KCNQ3* = KCNQ3* (Homo sapiens, UniProt O43525, A315T); assay: [3H]GABA binding and competition, oocytes expressing KCNQ3*; settings: 100 µM
Description: Oocytes were then washed four times in 16 °C ND96, transferred to individual wells in a 96 well plate and lysed in 0.2% SDS in ND96. Each oocyte lysate was transferred to a scintillation vial containing 5 ml Cytoscint scintillation cocktail fluid (MP Biomedicals, Santa Ana, CA). Vials were capped, shaken, and then allowed to sit at room temperature for at least 30 min before scintillation counting in a Beckmann Coulter LS6500 liquid scintillation counter.

[1] = 100 µM, −60 mV, single exponential fit

KCNQ2/3, sequence (O43525 whole entry): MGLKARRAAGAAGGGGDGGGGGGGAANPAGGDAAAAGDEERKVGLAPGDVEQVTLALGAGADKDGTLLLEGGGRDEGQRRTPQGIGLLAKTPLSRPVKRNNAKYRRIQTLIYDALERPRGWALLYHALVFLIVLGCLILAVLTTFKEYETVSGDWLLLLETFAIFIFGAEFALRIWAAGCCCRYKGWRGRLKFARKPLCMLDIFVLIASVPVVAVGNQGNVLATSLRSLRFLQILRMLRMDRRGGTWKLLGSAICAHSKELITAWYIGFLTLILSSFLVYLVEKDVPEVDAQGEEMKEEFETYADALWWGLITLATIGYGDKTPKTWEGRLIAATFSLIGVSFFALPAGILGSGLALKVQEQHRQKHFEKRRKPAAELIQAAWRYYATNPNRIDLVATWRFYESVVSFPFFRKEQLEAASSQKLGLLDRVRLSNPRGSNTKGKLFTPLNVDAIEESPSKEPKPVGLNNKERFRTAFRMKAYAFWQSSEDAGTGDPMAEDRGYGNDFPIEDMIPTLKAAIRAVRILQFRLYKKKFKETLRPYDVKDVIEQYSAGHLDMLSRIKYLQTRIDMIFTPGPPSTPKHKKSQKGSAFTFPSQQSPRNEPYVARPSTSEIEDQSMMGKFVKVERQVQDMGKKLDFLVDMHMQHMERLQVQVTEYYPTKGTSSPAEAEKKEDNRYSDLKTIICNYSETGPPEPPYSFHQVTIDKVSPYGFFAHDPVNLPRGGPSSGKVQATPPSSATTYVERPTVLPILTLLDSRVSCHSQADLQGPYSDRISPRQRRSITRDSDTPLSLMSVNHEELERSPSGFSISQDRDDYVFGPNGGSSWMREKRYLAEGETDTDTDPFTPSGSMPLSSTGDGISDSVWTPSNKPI
KCNQ2/3, sequence (O43526 whole entry): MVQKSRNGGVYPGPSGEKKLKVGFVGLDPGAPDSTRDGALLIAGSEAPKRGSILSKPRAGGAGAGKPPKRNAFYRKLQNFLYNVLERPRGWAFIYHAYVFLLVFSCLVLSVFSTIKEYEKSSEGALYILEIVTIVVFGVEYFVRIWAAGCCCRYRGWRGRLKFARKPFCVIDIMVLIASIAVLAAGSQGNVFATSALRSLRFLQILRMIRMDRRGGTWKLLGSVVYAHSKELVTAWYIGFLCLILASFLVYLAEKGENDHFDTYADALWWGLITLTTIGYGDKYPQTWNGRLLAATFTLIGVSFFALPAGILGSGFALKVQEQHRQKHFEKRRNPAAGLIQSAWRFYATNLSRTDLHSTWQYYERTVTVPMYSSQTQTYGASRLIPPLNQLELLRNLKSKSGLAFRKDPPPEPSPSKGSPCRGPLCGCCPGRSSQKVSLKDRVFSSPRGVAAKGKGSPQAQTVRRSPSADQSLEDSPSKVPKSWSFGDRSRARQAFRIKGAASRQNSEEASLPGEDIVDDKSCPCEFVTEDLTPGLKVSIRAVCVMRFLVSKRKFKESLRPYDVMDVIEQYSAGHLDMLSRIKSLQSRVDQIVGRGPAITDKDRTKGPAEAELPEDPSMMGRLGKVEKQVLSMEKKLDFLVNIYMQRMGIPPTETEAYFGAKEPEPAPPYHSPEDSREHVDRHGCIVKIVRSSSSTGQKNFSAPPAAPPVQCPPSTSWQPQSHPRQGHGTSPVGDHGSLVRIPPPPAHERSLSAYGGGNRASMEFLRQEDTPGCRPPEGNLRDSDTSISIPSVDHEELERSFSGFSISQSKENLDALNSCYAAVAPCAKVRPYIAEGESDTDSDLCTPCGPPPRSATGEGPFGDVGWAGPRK

CS(=O)(=O)N(CC(=O)O)c1cccc(F)c1 [3FMSG]
KCNQ2/3 activation and deactivation rates (KCNQ2/3; 100 µM, single exponential fit (τ)): speeded KCNQ2/3 activation and slowed its deactivation
tau of KCNQ2/3 current decrease during washout (KCNQ2/3; [1]): 40 s and 39 ± 10 s
tau of KCNQ2/3 current increase during wash-in (KCNQ2/3; [1]): ~ 15 s and 15 ± 3 s
increase in KCNQ2/3 current at −60 mV (KCNQ2/3; either compound alone, 1 uM): ~ fivefold
EC50 (KCNQ2/3; shift in voltage dependence of activation (ΔV0.5act), TEVC in oocytes, read-out: EC50, KCNQ2/3 activation): 51 ± 21 nM
effect of a tenfold excess (100 µM) on KCNQ2 activation by 2FPG (10 µM) (KCNQ2): subtly reduced the efficacy of 2FPG
effects on KCNQ2 (KCNQ2; dose response): negligible or much less potent effects
activation / sensitivity of RA/RA mutant KCNQ2/3 (KCNQ2-R213A/KCNQ3-R242A): larger reduction in sensitivity
competition of GABA binding to KCNQ3* (KCNQ3*): able to compete out GABA binding
